US12221656B2, “Methods and materials for assessing homologous recombination deficiency” (Myriad Genetics, Inc., priority 2014, dated 2025)

Test system: triple negative breast cancer (TNBC)
Experiment: Neoadjuvant cisplatin cohort, pathologic response in triple negative breast cancer
Format: in vivo, human
Conditions: for Pathologic complete response (pCR = yes), % response / Pathologic response (PR = yes), % response: secondary analysis, n=51
Procedure: Analysis of a neoadjuvant TNBC cohort treated with cisplatin was examined relative to the relationship between all three HRD scores and response. All p values were from logistic regression models with response to cisplatin as the dependent variable.
HR Deficiency status was determined for 62 of the 70 samples (70 individual patients) received from a cisplatin cohort (8 had insufficient tumors for analysis). Of these, 31 (50%) were HR deficient, 22 (35%) were non-HR deficient, and 9 (15%) were undetermined. FIG. 15 provides a histogram showing the distribution of HRD scores in the cohort. […] were considered to have high HRD (see also, Example 5). […] Pathologic complete response (pCR), which is associated with long-term survival, was defined as a residual cancer burden (RBC) of 0 and observed in 11/59 (19%) samples. […] These overall response rates correlated with monotherapy expectations.
Statistical analyses followed a predefined Statistical Analysis Plan (SAP), which included primary, secondary, and BRCA wild-type subset analyses.

N.N.[Cl][Pt][Cl] [cisplatin]
Pathologic complete response (pCR = yes), % response (BRCA Mutant): 3 (33.3%)
Pathologic response (PR = yes), % response (BRCA Mutant): 5 (55.6%)
Pathologic complete response (pCR = yes), % response (BRCA Non-mutant): 5 (11.9%)
Pathologic response (PR = yes), % response (BRCA Non-mutant): 13 (31.0%)
Pathologic complete response (pCR), residual cancer burden of 0 (whole cisplatin cohort, 11/59 samples): 19%
Pathologic response (PR), residual cancer burden of 0 or 1 (whole cisplatin cohort, 22/59 samples): 37%
